Test results as given in ChEMBL document CHEMBL4184309, “Synthesis and biological evaluation of novel carbazole-rhodanine conjugates as topoisomerase II inhibitors” (Bioorg Med Chem Lett, 2018).
Active and inactive are the calls of the source. No cut-off for these calls is given here.

Legend:
[1] = molecular target: T1, Topoisomerase I (Bos taurus) (UniProt Q2HPH0); assay: Inhibition of calf thymus topoisomerase-1 assessed as reduction in relaxation of pBR322 plasmid DNA at 100 uM measured after 30 mins by agarose gel electrophoresis
T1 sequence (whole entry): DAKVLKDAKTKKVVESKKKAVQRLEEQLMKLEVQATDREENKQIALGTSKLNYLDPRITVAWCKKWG

[2] = molecular target: DNA topoisomerase 2-alpha (Homo sapiens) (UniProt P11388); assay: Poison activity at human topoisomerase-2 assessed as linear DNA formation by measuring relaxation of supercoiled pBR322 plasmid DNA at 50 uM after 6 mins by agarose gel electrophoresis
[3] = molecular target: DNA topoisomerase 1 (Homo sapiens) (UniProt P11387); assay: Inhibition of human topoisomerase-1 assessed as DNA intercalation by measuring relaxation of supercoiled pBR322 plasmid DNA after 6 mins by agarose gel electrophoresis
[4] = test system: K562; assay: Cytotoxicity against human K562 cells after 48 hrs by MTT assay; assay type: functional, cell-based; conditions: K562, 48 h
[5] = test system: A549; assay: Cytotoxicity against human A549 cells after 48 hrs by MTT assay; assay type: functional, cell-based; conditions: A549, 48 h
[6] = test system: HL-60; assay: Cytotoxicity against human HL60 cells after 48 hrs by MTT assay; assay type: functional, cell-based; conditions: HL-60, 48 h
[7] = test system: HeLa; assay: Cytotoxicity against human HeLa cells after 48 hrs by MTT assay; assay type: functional, cell-based
[8] = molecular target: DNA topoisomerase 2-alpha (Homo sapiens) (UniProt P11388); assay: Inhibition of human topoisomerase-2 assessed as reduction in relaxation of pBR322 plasmid DNA at 20 uM measured after 30 mins by agarose gel electrophoresis
[9] = molecular target: DNA topoisomerase 2-alpha (Homo sapiens) (UniProt P11388); assay: Inhibition of human topoisomerase-2 assessed as DNA intercalation by measuring relaxation of supercoiled pBR322 plasmid DNA at 0.3 to 2.5 uM after 6 mins by agarose gel electrophoresis
[10] = molecular target: DNA topoisomerase 2-alpha (Homo sapiens) (UniProt P11388); assay: Inhibition of human topoisomerase-2 assessed as reduction in relaxation of pBR322 plasmid DNA at 10 uM measured after 30 mins by agarose gel electrophoresis

Sequence of DNA topoisomerase 2-alpha (Homo sapiens) (P11388 whole entry): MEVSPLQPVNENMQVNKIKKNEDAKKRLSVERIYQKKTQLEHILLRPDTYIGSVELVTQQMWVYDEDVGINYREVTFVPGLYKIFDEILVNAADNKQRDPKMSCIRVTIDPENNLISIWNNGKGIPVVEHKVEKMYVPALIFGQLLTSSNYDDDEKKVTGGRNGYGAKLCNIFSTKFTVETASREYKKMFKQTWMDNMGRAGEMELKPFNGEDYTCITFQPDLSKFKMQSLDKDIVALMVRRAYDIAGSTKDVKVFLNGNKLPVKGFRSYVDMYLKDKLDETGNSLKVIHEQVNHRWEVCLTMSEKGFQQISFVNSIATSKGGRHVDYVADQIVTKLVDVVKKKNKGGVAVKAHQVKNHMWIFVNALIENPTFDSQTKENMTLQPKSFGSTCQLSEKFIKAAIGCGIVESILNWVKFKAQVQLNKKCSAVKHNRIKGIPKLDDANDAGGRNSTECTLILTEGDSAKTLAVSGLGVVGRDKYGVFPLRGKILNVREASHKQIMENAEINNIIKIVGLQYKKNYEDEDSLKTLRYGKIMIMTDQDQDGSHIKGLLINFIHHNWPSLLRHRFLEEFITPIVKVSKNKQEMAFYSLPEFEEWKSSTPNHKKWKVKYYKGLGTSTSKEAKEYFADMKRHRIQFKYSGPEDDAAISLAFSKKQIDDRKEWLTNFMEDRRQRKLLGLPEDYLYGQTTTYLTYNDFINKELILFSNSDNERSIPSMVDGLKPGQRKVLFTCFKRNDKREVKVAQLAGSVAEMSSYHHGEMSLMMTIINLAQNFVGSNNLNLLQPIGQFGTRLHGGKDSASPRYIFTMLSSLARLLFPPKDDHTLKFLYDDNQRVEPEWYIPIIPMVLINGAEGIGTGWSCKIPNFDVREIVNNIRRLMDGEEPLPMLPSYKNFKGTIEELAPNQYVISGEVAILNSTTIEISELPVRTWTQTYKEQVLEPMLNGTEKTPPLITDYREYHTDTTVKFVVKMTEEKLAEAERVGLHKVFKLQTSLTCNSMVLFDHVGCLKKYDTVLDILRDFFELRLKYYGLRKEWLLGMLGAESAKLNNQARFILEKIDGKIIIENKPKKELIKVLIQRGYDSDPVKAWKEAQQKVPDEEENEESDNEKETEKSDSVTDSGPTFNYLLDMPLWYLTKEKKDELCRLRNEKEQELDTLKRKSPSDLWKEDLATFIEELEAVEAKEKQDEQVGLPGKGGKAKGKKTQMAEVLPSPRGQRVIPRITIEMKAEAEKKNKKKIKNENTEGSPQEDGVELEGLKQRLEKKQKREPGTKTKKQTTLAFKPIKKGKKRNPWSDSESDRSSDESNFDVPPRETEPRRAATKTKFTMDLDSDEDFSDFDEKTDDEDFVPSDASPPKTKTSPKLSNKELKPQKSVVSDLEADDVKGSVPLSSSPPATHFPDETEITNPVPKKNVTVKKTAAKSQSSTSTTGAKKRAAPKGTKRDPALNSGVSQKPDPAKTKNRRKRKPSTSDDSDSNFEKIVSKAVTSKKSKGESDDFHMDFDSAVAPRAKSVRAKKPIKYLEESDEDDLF
Sequence of DNA topoisomerase 1 (Homo sapiens) (P11387 whole entry, looked up): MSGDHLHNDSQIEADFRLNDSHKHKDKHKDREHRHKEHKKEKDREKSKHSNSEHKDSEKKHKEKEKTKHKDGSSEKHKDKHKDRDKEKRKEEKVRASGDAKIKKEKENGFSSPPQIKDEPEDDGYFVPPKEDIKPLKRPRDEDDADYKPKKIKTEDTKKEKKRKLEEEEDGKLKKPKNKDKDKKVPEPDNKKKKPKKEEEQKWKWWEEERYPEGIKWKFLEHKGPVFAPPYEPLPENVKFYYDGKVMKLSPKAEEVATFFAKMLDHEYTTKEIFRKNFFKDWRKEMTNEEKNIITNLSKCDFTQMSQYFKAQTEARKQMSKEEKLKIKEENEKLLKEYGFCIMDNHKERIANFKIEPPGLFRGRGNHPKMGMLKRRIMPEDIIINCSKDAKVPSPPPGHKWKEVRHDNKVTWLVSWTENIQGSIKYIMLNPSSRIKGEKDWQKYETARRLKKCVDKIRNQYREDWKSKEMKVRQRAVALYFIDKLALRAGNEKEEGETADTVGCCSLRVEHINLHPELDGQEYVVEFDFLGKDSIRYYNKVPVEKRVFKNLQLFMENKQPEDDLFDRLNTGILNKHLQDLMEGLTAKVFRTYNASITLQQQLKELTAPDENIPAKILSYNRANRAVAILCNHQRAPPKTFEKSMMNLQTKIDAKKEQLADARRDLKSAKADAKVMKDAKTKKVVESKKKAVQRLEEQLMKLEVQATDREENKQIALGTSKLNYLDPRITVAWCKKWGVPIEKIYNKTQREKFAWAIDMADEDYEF

## CC[C@@]1(O)C(=O)OCc2c1cc1n(c2=O)Cc2cc3ccccc3nc2-1
[1]
  inhibition: Active

## N#Cc1ccc(Cn2c3ccccc3c3cc(/C=C4\SC(=S)N(CC(=O)O)C4=O)ccc32)cc1
[2]
  Activity: inactive
[3]
  inhibition: Dose-dependent effect
[1]
  inhibition: inactive
[4]
  IC50: 1.85 µM
[5]
  IC50: 2.18 µM
[6]
  IC50: 0.43 µM
[7]
  IC50: 5.06 µM
[8]
  inhibition: Active

## CC[n+]1c(-c2ccccc2)c2cc(N)ccc2c2ccc(N)cc21
[9]
  inhibition: Active

## O=C(O)CN1C(=O)/C(=C/c2ccc3c(c2)c2ccccc2n3Cc2ccc(F)c(F)c2)SC1=S
[1]
  inhibition: inactive
[4]
  IC50: 7.31 µM
[5]
  IC50: 12.4 µM
[6]
  IC50: 4.17 µM
[7]
  IC50: 15.1 µM
[8]
  inhibition: Active

## O=C(O)CN1C(=O)/C(=C/c2ccc3c(c2)c2ccccc2n3Cc2ccc(Br)cc2F)SC1=S
[1]
  inhibition: inactive
[4]
  IC50: 6.92 µM
[5]
  IC50: 9.44 µM
[6]
  IC50: 3.51 µM
[7]
  IC50: 11.7 µM
[8]
  inhibition: Active

## O=C(O)CN1C(=O)/C(=C/c2ccc3c(c2)c2ccccc2n3Cc2ccc(C(F)(F)F)cc2)SC1=S
[2]
  Activity: inactive
[3]
  inhibition: Dose-dependent effect
[1]
  inhibition: inactive
[4]
  IC50: 2.16 µM
[5]
  IC50: 3.4 µM
[6]
  IC50: 0.71 µM
[7]
  IC50: 8.2 µM
[8]
  inhibition: Active

## Cc1ccc(Cn2c3ccccc3c3cc(/C=C4\SC(=S)N(CC(=O)O)C4=O)ccc32)cc1
[1]
  inhibition: inactive
[4]
  IC50: 29.6 µM
[5]
  IC50: > 50 µM
[6]
  IC50: 17.8 µM
[7]
  IC50: > 50 µM
[8]
  inhibition: inactive

## O=C(O)CN1C(=O)/C(=C/c2ccc3c(c2)c2ccccc2n3Cc2ccccc2F)SC1=S
[1]
  inhibition: inactive
[4]
  IC50: 11.8 µM
[5]
  IC50: 13.6 µM
[6]
  IC50: 1.82 µM
[7]
  IC50: 21.3 µM
[8]
  inhibition: inactive

## O=C(O)CN1C(=O)/C(=C/c2ccc3c(c2)c2ccccc2n3Cc2ccc(Cl)cc2)SC1=S
[1]
  inhibition: inactive
[4]
  IC50: 13.4 µM
[5]
  IC50: 16.2 µM
[6]
  IC50: 4.86 µM
[7]
  IC50: 28.3 µM
[8]
  inhibition: inactive

## O=C(O)CN1C(=O)/C(=C/c2ccc3c(c2)c2ccccc2n3Cc2ccccc2)SC1=S
[1]
  inhibition: inactive
[4]
  IC50: 21.4 µM
[5]
  IC50: 32.2 µM
[6]
  IC50: 14.6 µM
[7]
  IC50: > 50 µM
[8]
  inhibition: inactive

## O=C(O)CN1C(=O)/C(=C/c2ccc3c(c2)c2ccccc2n3Cc2ccc(F)cc2)SC1=S
[1]
  inhibition: inactive
[4]
  IC50: 19.1 µM
[5]
  IC50: > 50 µM
[6]
  IC50: 8.57 µM
[7]
  IC50: > 50 µM
[8]
  inhibition: Active

## O=C(O)CN1C(=O)/C(=C/c2ccc3c(c2)c2ccccc2n3Cc2ccc(Br)cc2)SC1=S
[1]
  inhibition: inactive
[4]
  IC50: 28 µM
[5]
  IC50: > 50 µM
[6]
  IC50: 12.7 µM
[7]
  IC50: > 50 µM
[8]
  inhibition: inactive

## O=C(O)CN1C(=O)/C(=C/c2ccc3c(c2)c2ccccc2n3Cc2ccc([N+](=O)[O-])cc2)SC1=S
[1]
  inhibition: inactive
[4]
  IC50: 2.7 µM
[5]
  IC50: 3.94 µM
[6]
  IC50: 0.96 µM
[7]
  IC50: 7.51 µM
[8]
  inhibition: Active
[10]
  inhibition: Active

## O=C(O)CN1C(=O)/C(=C/c2ccc3c(c2)c2ccccc2n3Cc2cccc(F)c2)SC1=S
[1]
  inhibition: inactive
[4]
  IC50: 12.8 µM
[5]
  IC50: 19.8 µM
[6]
  IC50: 8.29 µM
[7]
  IC50: > 50 µM
[8]
  inhibition: inactive

## COc1cc([C@@H]2c3cc4c(cc3[C@@H](O[C@@H]3O[C@@H]5CO[C@@H](C)O[C@H]5[C@H](O)[C@H]3O)[C@H]3COC(=O)[C@H]23)OCO4)cc(OC)c1O [ETOPOSIDE]
[7]
  IC50: 32 µM
[8]
  inhibition: Active

## O=C(O)CN1C(=O)/C(=C/c2ccc3c(c2)c2ccccc2n3Cc2ccc(F)cc2F)SC1=S
[1]
  inhibition: inactive
[4]
  IC50: 12.6 µM
[5]
  IC50: 22.6 µM
[6]
  IC50: 3.84 µM
[7]
  IC50: > 50 µM
[8]
  inhibition: inactive
